In ChEMBL document CHEMBL1122265, “Nitrogen bridgehead compounds. 33. New antiallergic 4H-pyrido[1,2-a]pyrimidin-4-ones. 2” (1983):
Active and inactive are the calls of the source. The rule behind the calls is not given here.

Legend:
Rattus norvegicus [1] = test: Antiallergic activity in rat reaginic passive cutaneous anaphylaxis (PCA) test upon intravenous administration; type: functional; settings: read-out: ID50 (the source's name)
Rattus norvegicus [2] = test: Antiallergic activity in rat reaginic passive cutaneous anaphylaxis (PCA) test upon peroral administration; type: functional; settings: po, read-out: ID50 (the source's name)
Rattus norvegicus [3] = test: Antiallergic activity in rat reaginic passive cutaneous anaphylaxis (PCA) test upon intravenous administration; Insoluble; type: functional, organism-based
Rattus norvegicus [4] = test: Antiallergic activity in rat reaginic passive cutaneous anaphylaxis (PCA) test upon peroral administration; NA means inactive; type: functional, organism-based

Row | SMILES | ED50 (Rattus norvegicus [1]) [µmol/kg] | ED50 (Rattus norvegicus [2]) [µmol/kg] | ID50 (Rattus norvegicus [3]) | ID50 (Rattus norvegicus [4])
1 | CC1CCC(=NNc2nn[nH]n2)c2ncc(C(=O)O)c(=O)n21 (centres undefined) | > 100 | > 100 | – | –
2 | Cc1cccc(NN=C2CCC(C)n3c2ncc(C(=O)O)c3=O)c1C (centres undefined) | – | > 100 | Insoluble | –
3 | Cc1ccc(NN=C2CCC(C)n3c2ncc(C(=O)O)c3=O)cc1C (centres undefined) | 6.5 | > 100 | – | –
4 | CC1CCC(=NNc2cc(C(F)(F)F)cc(C(F)(F)F)c2)c2ncc(C(=O)O)c(=O)n21 (centres undefined) | – | > 100 | Insoluble | –
5 | CC1CCC(C)(N=Nc2ccccc2C(=O)O)c2ncc(C(=O)O)c(=O)n21 (centres undefined) | > 100 | > 100 | – | –
6 | Cc1c(NN=C2CCC(C)n3c2ncc(C(=O)O)c3=O)c(=O)n(-c2ccccc2)n1C (centres undefined) | 31 | > 100 | – | –
7 | Cc1nc2n(c(=O)c1C(N)=O)C(C)CCC2=NNc1ccccc1 (centres undefined) | – | > 100 | Insoluble | –
8 | CC1CCC(=NN(C)c2ccccc2)c2ncc(C(=O)O)c(=O)n21 (centres undefined) | 52.4 | > 100 | – | –
9 | CNN=C1CCC(C)n2c1ncc(C(=O)O)c2=O (centres undefined) | 17.5 | > 100 | – | –
10 | Cc1cc(C)c(NN=C2CCC(C)n3c2ncc(C(=O)O)c3=O)c(C)c1 (centres undefined) | – | 320 | Insoluble | –
11 | Cc1cc(NN=C2CCC(C)n3c2ncc(C(=O)O)c3=O)ccc1Br (centres undefined) | – | > 100 | Insoluble | –
12 | CC1CCC(=NNc2ccc(Cl)c(Cl)c2)c2ncc(C(=O)O)c(=O)n21 (centres undefined) | 0.89 | > 100 | – | –
13 | CC1CCC(=NNc2cc([N+](=O)[O-])cc([N+](=O)[O-])c2)c2ncc(C(=O)O)c(=O)n21 (centres undefined) | 3.4 | > 100 | – | –
14 | CC1CCC(N=Nc2ccccc2)=C2N(C)C=C(C(=O)O)C(=O)N21 (centres undefined) | – | > 100 | Insoluble | –
15 | CCc1nc2n(c(=O)c1C(=O)O)C(C)CCC2=NNc1ccccc1 (centres undefined) | > 100 | > 320 | – | –
16 | CC1CCC(=NNc2cccc3ccccc23)c2ncc(C(=O)O)c(=O)n21 (centres undefined) | – | > 320 | Insoluble | –
17 | CC1CCC(C)(N=Nc2ccccc2)c2ncc(C(=O)O)c(=O)n21 (centres undefined) | 35 | > 100 | – | –
18 | CC1CCC(=NNc2ccccn2)c2ncc(C(=O)O)c(=O)n21 (centres undefined) | 3.2 | > 100 | – | –
19 | CC1CCC(=NNc2cc(Cl)ccc2O)c2ncc(C(=O)O)c(=O)n21 (centres undefined) | – | > 100 | Insoluble | –
20 | COc1cc(OC)c(NN=C2CCC(C)n3c2ncc(C(=O)O)c3=O)cc1Cl (centres undefined) | – | > 100 | Insoluble | –
21 | CC1CCC(=NNc2ccccc2C(=O)O)c2ncc(C(=O)O)c(=O)n21 (centres undefined) | 0.48 | > 100 | – | –

Row | SMILES | ED50 (Rattus norvegicus [1]) [µmol/kg] | ED50 (Rattus norvegicus [2]) [µmol/kg] | ID50 (Rattus norvegicus [3]) | ID50 (Rattus norvegicus [4])
22 | CC1CC/C(=N\N)c2ncc(C(=O)O)c(=O)n21 (centres undefined) | 42 | > 100 | – | –
23 | CC1CCC(=NNc2cc(Cl)cc(Cl)c2)c2ncc(C(=O)O)c(=O)n21 (centres undefined) | 13.3 | > 100 | – | –
24 | CC1CCC(=NNc2ccccc2)c2ncc(C(=O)NO)c(=O)n21 (centres undefined) | > 100 | > 100 | – | –
25 | CC1CCC(=NNc2ccc3ccccc3c2)c2ncc(C(=O)O)c(=O)n21 (centres undefined) | 0.77 | > 100 | – | –
26 | CCc1nc2n(c(=O)c1C(N)=O)C(C)CCC2=NNc1ccccc1 (centres undefined) | – | > 100 | Insoluble | –
27 | CC1CCC(=NNc2ccc(Br)cc2Cl)c2ncc(C(=O)O)c(=O)n21 (centres undefined) | – | > 100 | Insoluble | –
28 | Cc1cc(C)cc(NN=C2CCC(C)n3c2ncc(C(=O)O)c3=O)c1 (centres undefined) | – | > 320 | Insoluble | –
29 | COc1cc(NN=C2CCC(C)n3c2ncc(C(=O)O)c3=O)cc(OC)c1 (centres undefined) | 0.42 | 100 | – | –
30 | CC1CCC(=NNc2ccccc2)c2ncc(C(=O)O)c(=O)n21 (centres undefined) | 0.6 | 1.2 | – | –
31 | CCOC(=O)c1cnc2n(c1=O)C(C)CCC2=NNc1c(C)n(C)n(-c2ccccc2)c1=O (centres undefined) | 95 | > 100 | – | –
32 | Cc1cc(C)c(NN=C2CCC(C)n3c2ncc(C(=O)O)c3=O)cc1C (centres undefined) | – | 320 | Insoluble | –
33 | CC1CCC(=NNc2c(Cl)cccc2Cl)c2ncc(C(=O)O)c(=O)n21 (centres undefined) | – | > 100 | Insoluble | –
34 | CC1CCC(N=Nc2ccccc2C(=O)O)=C2N(C)C=C(C(=O)O)C(=O)N21 (centres undefined) | > 100 | > 100 | – | –
35 | CC1CCC(=NNc2ccc(Cl)cc2Cl)c2ncc(C(=O)O)c(=O)n21 (centres undefined) | – | > 100 | Insoluble | –
36 | CC1CCC(=NNc2cccnc2)c2ncc(C(=O)O)c(=O)n21 (centres undefined) | 0.54 | > 320 | – | –
37 | Cc1nc2n(c(=O)c1C(=O)O)C(C)CCC2=NNc1ccccc1 (centres undefined) | > 100 | > 320 | – | –
38 | Cc1cccc(Cl)c1NN=C1CCC(C)n2c1ncc(C(=O)O)c2=O (centres undefined) | – | > 100 | Insoluble | –
39 | Cc1cccc(C)c1NN=C1CCC(C)n2c1ncc(C(=O)O)c2=O (centres undefined) | – | 320 | Insoluble | –
40 | CC1CCC(=NNc2ccccc2C(=O)O)c2ncc(C(=O)NO)c(=O)n21 (centres undefined) | > 100 | > 100 | – | –
41 | O=C(O)c1cc(=O)c2c(OCC(O)COc3cccc4oc(C(=O)O)cc(=O)c34)cccc2o1 [CROMOLYN SODIUM] | 1 | – | – | inactive
42 | CC1CCC(=NNc2ccc3c(c2)OCO3)c2ncc(C(=O)O)c(=O)n21 (centres undefined) | 0.33 | > 100 | – | –
